Patent US6465476B1, “Immuno-modulator exhibiting antimicrobial and anti-mycrobacterial activities, method for producing the same and pharmaceutical preparation” (priority 1997, dated 2002)
Like-named read-outs stand apart in the source and are kept apart here.

Key:
[1] = tested on: antibody-forming cells (AFC) in the spleen; assay: Humoral immunity, localized-in-gel hemolysis, AFC accumulation in spleen of immunized mice; assay type: in vivo, hybrid mice F1 (CBA/C57BL6)
Protocol: The influence on humoral immunity was studied using the method of localized-in-gel hemolysis. […] On the 5th day the number of antibody-forming cells (AFC) in the spleen of the mice was calculated and the immune response stimulation index was determined as the ratio of AFC number in the test group to the AFC number in the control group. The respective data are represented in Table 2.

[2] = tested on: agent of leprosy (mycobacteria of leprosy)
[3] = tested on: antibody-forming cells (AFC) in the spleens; assay: Antibody-forming cells in the spleen, immunodeficiency caused by irradiation (Jeme-Nordin's procedure); assay type: in vivo, mice F1 (CBA×C57BL/6); settings: irradiated mice 4 Gy
Protocol: Determination of immunotropic activity of isophonum was carried out. Immunotropic activity of isophonum was determined on a model of immunodeficiency caused by irradiation. To create an immunodeficient state the mice F1 (CBA×C57BL/6) were irradiated with gamma-rays on a radioterapeutic apparatus in a dose of 4 Gy (Gy is the irradiation unit gray) at an irradiation dose power of 0.55 Gr/min. The number of antibody-forming cells (AFC) in the spleens was calculated by Jeme-Nordin's procedure. Isophonum and diuciphonum were introduced per os over a wide range of doses. The investigation results are represented in Table 1.

Solubility = assay type: physicochemical
Protocol: It is soluble in dimethylformamide, dimethylsulfoxide, deluted acids and alkalies; f. p.=255-256° C. The structure of matter is confirmed by the data of PMR-spectroskopy.

[4] = tested on: human mononucleator cells (T-lymphocytes); assay: Proliferation of T-lymphocytes in cell culture in vitro (3H-thymidine); assay type: cell-based
Protocol: The influence of the test compound on the proliferation of T-lymphocytes was studied on a model in vitro. To this end human mononucleator cells were preliminarily incubated during three hours in the presence of different concentrations of each test substance. Each test substance was studied over a wide range of its concentrations, that is from […]. As a negative control there was added a physiological 0.9 percent solution of NaCl. The results of the influence of novel compoubds on the intensity of proliferation of human lymphocytes in the cell culture in vitro are represented in Table 3.

pulmonary tuberculosis = assay: Clinical study on patients with pulmonary tuberculosis; assay type: in vivo, human; settings: for B-lymphocytes / T-helpers / T-lymphocytes / T-suppressors / Th/Ts: pulmonary tuberculosis patients
Excerpt: The preparation of the present invention was also studied clinically on tuberculous patients. The age of the patients was under 30 years (6 persons) and under 35 years (2 persons).
The clincal forms of pulmonary tuberculosis in the patients tested were as follows:
infiltrative tuberculosis without cavities of decay and bacterioexcretion—2 persons;
infiltrative tuberculosis with decay and bacterioexcretion—4 persons;
disseminated pulmonary tuberculosis—2 people.
The length of preparation intake was 1 to 2 months. The dose was equal to 0.6 g a day.
The control group consisting of 5 persons with infiltrative pulmonary tuberculosis received conventional treatment including isoniazide. The tolerance for the preparation claimed was good. […] There was no change in functional indices of parenchymatous organs (liver, kidneys, pancreas). In 3 persons hospitalized with symptoms of intoxication the improvement of general physical and mental state was noted including normatization of body temperature, abatement of cough, decrease in amount of sputum excretion, improvement of appetite.

[5] = tested on: chlamydious infection, PCND; assay: Double blind clinical test, chlamydiosis and pulmonary chronic nonspecific diseases; assay type: in vivo, human
Protocol: The investigation was carried out randomizedly by a “double blind method” on 45 patients aged 25 to 49 years.
The group I consisting of 15 patients (10 persons with pulmonary chronic nonspecific diseases (PCND), 6 of them having chronic catarrhal obstructive bronchitis and 4 having chronic catarrhal nonobstructive bronchitis; 4 persons with chlamydious infection and one person with ureaplasmic infection) received the preparation claimed as monotherapy in a daily dose of 200 mg during 30 days. The group II consisting of 15 patients (8 persons with chlamydious infection, 7 persons with PCND, 5 of them having chronic catarrhal bronchitis, 2 having bronchiectatic disease) received the preparation of the present invention as monotherapy in a daily dose of 400 mg during 30 days. The group III consisting of 15 patients (13 persons with PCND, 7 of them having chronic catarrhal nonobstructive bronchitis and 6 having chronic catarrhal obstructive bronchitis; 2 persons with chlamydious infection) received a placebo.

[6] = leprosy patients, after one month, 0.6 g daily
[7] = leprosy patients, after three months, 0.6 g daily
[8] = leprosy patients, before treatment
[9] = after three months, 0.6 g a day
[10] = tuberculous patients, 0.6 g a day, 1 to 2 months

**Q.** With `Cc1[nH]c(=O)[nH]c(=O)c1S(=O)(=O)NNC(=O)c1ccncc1.O` [Isophonum, N-(6-methyl-2,4-dioxo-1,2,3,4-tetrahydro-5-pyrimidinsulfon)-N′-isonicotinoylhydrazide hydrate] as the compound, how does the “AFC-number in the spleen” value ([1]; 500 μg per mouse per os in starch suspension, 5th day after immunization) read?
**A.** 2800 ± 200

**Q.** And the “Immune response stimulation index” value ([1]; 500 μg per mouse per os, ratio of AFC test group to control group)?
**A.** 5.6

**Q.** And the “shortening of the length of stationary treatment of the leprous patients” value ([2]; human, in vivo)?
**A.** two-fold

**Q.** And the “tolerability, side effects” value ([2]; human, in vivo)?
**A.** well tolerable, has no side effects

**Q.** What about the “time after which the agent of leprosy disappeared in scrapes of nasal mucosa” value ([2]; leprosy patients, 0.6 g daily) of the same compound?
**A.** 3 months

**Q.** What about the B-lymphocytes [2, 6] of the same compound?
**A.** 10.0 ± 0.2

**Q.** And the T-helpers [2, 6]?
**A.** 28.2 ± 0.3

**Q.** What about the T-lymphocytes [2, 6] of the same compound?
**A.** 43.4 ± 0.7

**Q.** And the T-suppressors [2, 6]?
**A.** 20.0 ± 0.4

**Q.** And the “Th/Ts (immunoregulatory index)” value [2, 6]?
**A.** 1.4

**Q.** What about the B-lymphocytes [2, 7] of the same compound?
**A.** 11.4 ± 0.4

**Q.** What about the T-helpers [2, 7] of the same compound?
**A.** 48.4 ± 1.2

**Q.** What about the T-lymphocytes [2, 7] of the same compound?
**A.** 60.2 ± 0.9

**Q.** What about the T-suppressors [2, 7] of the same compound?
**A.** 21.2 ± 0.4

**Q.** What about the “Th/Ts (immunoregulatory index)” value [2, 7] of the same compound?
**A.** 2.3 ± 0.1

**Q.** What about the B-lymphocytes [2, 8] of the same compound?
**A.** 8.4 ± 0.2

**Q.** What about the T-helpers [2, 8] of the same compound?
**A.** 20.2 ± 0.2

**Q.** And the T-lymphocytes [2, 8]?
**A.** 28.6 ± 0.1

**Q.** What about the T-suppressors [2, 8] of the same compound?
**A.** 20.4 ± 0.3

**Q.** What about the “Th/Ts (immunoregulatory index)” value [2, 8] of the same compound?
**A.** 1.0

**Q.** And the “AFC-number in the spleen” value ([3]; 10 μg per mouse per os)?
**A.** 1013 ± 126

**Q.** What about the “Immune response stimulation index” value ([3]; 10 μg per mouse per os) of the same compound?
**A.** 3.63 ± 0.57

**Q.** And the “AFC-number in the spleen” value ([3]; 100 μg per mouse per os)?
**A.** 1173 ± 125

**Q.** What about the “Immune response stimulation index” value ([3]; 100 μg per mouse per os) of the same compound?
**A.** 4.28 ± 0.8

**Q.** And the “AFC-number in the spleen” value ([3]; 1000 μg per mouse per os)?
**A.** 1216 ± 124

**Q.** What about the “Immune response stimulation index” value ([3]; 1000 μg per mouse per os) of the same compound?
**A.** 4.46 ± 0.9

**Q.** What about the “solubility in dimethylformamide, dimethylsulfoxide, deluted acids and alkalies” value (Solubility) of the same compound?
**A.** soluble

**Q.** And the “solubility in water or usual organic solvents” value (Solubility)?
**A.** difficult to dissolve

**Q.** What about the “Intensity of involvement of 3H-thymidine in DNA of cultivated cells, PHA-activated” value (“Intensity of involvement … PHA-activated” for short) ([4]; 0.01 μg/ml) of the same compound?
**A.** 19995 impulse per minute

**Q.** What about the “Intensity of involvement of 3H-thymidine in DNA of cultivated cells, Spontaneous” value (shortened to “Intensity of involvement … Spontaneous”) ([4]; 0.01 μg/ml) of the same compound?
**A.** 901 impulse per minute

**Q.** And the “Intensity of involvement … PHA-activated” value ([4]; 0.03 μg/ml)?
**A.** 24736 impulse per minute

**Q.** And the “Intensity of involvement … Spontaneous” value ([4]; 0.03 μg/ml)?
**A.** 1152 impulse per minute

**Q.** And the “Intensity of involvement … PHA-activated” value ([4]; 0.1 μg/ml)?
**A.** 37890 impulse per minute

**Q.** And the “Intensity of involvement … Spontaneous” value ([4]; 0.1 μg/ml)?
**A.** 1818 impulse per minute

**Q.** And the “Intensity of involvement … PHA-activated” value ([4]; 1 μg/ml)?
**A.** 25455 impulse per minute

**Q.** What about the “Intensity of involvement … Spontaneous” value ([4]; 1 μg/ml) of the same compound?
**A.** 1272 impulse per minute

**Q.** And the “Intensity of involvement … PHA-activated” value ([4]; 5 μg/ml)?
**A.** 20120 impulse per minute

**Q.** What about the “Intensity of involvement … Spontaneous” value ([4]; 5 μg/ml) of the same compound?
**A.** 871 impulse per minute

**Q.** What about the optimal concentration ([4]; proliferation of T-cells) of the same compound?
**A.** 0.1 µg/mL

**Q.** And the mitogenetic activity ([4]; spontaneous proliferation)?
**A.** possesses the proper mitogenetic activitiy of its own

**Q.** And the B-lymphocytes (pulmonary tuberculosis; after one month, 0.6 g a day)?
**A.** 12.0 ± 0.8

**Q.** What about the T-helpers (pulmonary tuberculosis; after one month, 0.6 g a day) of the same compound?
**A.** 37.4 ± 0.3

**Q.** What about the T-lymphocytes (pulmonary tuberculosis; after one month, 0.6 g a day) of the same compound?
**A.** 48.5 ± 1.0

**Q.** And the T-suppressors (pulmonary tuberculosis; after one month, 0.6 g a day)?
**A.** 20.0 ± 0.6

**Q.** And the Th/Ts (pulmonary tuberculosis; after one month, 0.6 g a day)?
**A.** 1.85 ± 0.2

**Q.** What about the B-lymphocytes (pulmonary tuberculosis; [9]) of the same compound?
**A.** 11.0 ± 0.6

**Q.** And the T-helpers (pulmonary tuberculosis; [9])?
**A.** 55.5 ± 2.0

**Q.** And the T-lymphocytes (pulmonary tuberculosis; [9])?
**A.** 54.8 ± 0.7

**Q.** And the Th/Ts (pulmonary tuberculosis; [9])?
**A.** 2.75 ± 0.04

**Q.** And the B-lymphocytes (pulmonary tuberculosis; before treatment)?
**A.** 9.0 ± 0.3

**Q.** What about the T-helpers (pulmonary tuberculosis; before treatment) of the same compound?
**A.** 28.6 ± 0.2

**Q.** And the T-lymphocytes (pulmonary tuberculosis; before treatment)?
**A.** 42.2 ± 0.1

**Q.** And the T-suppressors (pulmonary tuberculosis; before treatment)?
**A.** 28.0 ± 1.2

**Q.** And the Th/Ts (pulmonary tuberculosis; before treatment)?
**A.** 1.0 ± 0.02

**Q.** And the signs of toxication (pulmonary tuberculosis; [10])?
**A.** No one of the patients exhibeted clinical, hematological signs of toxicaction

**Q.** And the “tolerance for the preparation” value (pulmonary tuberculosis; [10])?
**A.** good

**Q.** What about the side effects ([5]; dose of 200 mg and dose of 400 mg) of the same compound?
**A.** does not have any side effects

**Q.** What about the “number of patients with improvement of clinico-immunologic indices” value ([5]; group I, 15 patients, 200 mg per day, 30 days) of the same compound?
**A.** 14 people

**Q.** And the “number of patients with improvement of clinico-immunologic parameters” value ([5]; group II, 15 patients, 400 mg daily, 30 days)?
**A.** 14 persons

**Q.** And the “signs of individual intolerance” value ([5]; one patient of group I, 200 mg per day, 3rd day of intake)?
**A.** nausea and vomiting
